The results in this text go back to ChEMBL document CHEMBL1121515 (J Med Chem, 1980).

Active and inactive are the calls of the source. The rule behind the calls is not given here.

Data set [1] can be described thus: Lethal dose was measured in mice 0.5 hr post intraperitoneal administration. Format: toxicity, organism-based. The following applies: mouse, in vivo, ip.
Data set [2] concerns Rattus norvegicus. The data set is described as follows: Conditioned avoidance response (CAR) was measured in rats at 20 mg/kg doses; I = inactive. The format is functional, organism-based. Set-up: dose 20 mg/kg.
The species entered for data set [3] is Mus musculus. The data set is described as follows: Relative CNS activity of compound was measured in mice; (-) </= […]. The format is functional, Central nervous system.
The subject of data set [4] is Rattus norvegicus. The data set is described as follows: Conditioned avoidance response (CAR) was measured in rats at 5 mg/kg doses; I = inactive. Format: functional, organism-based. Set-up: dose 5 mg/kg.
Data set [5] has as its system Rattus norvegicus. The data set is described as follows: Conditioned avoidance response (CAR) was measured in rats at 10 mg/kg; Inactive. The format is functional, organism-based. Set-up: dose 10 mg/kg.
Data set [6] relates to Rattus norvegicus. The data set is described as follows: Conditioned avoidance response (CAR) was measured in rats at 40 mg/kg; Active. Format: functional, organism-based. Also on record: dose 40 mg/kg.
The species entered for data set [7] is Mus musculus. The data set is described as follows: Relative CNS activity of compound was measured in mice (for activity in 2-3 assays). Format: functional, organism-based. The following applies: Central nervous system.
In data set [8] the test system is Rattus norvegicus. The data set is described as follows: Conditioned avoidance response (CAR) was measured in rats at 40 mg/kg; A = active. Set-up: dose 40 mg/kg. The format is functional, organism-based.
Data set [9] relates to Rattus norvegicus. The data set is described as follows: Conditioned avoidance response (CAR) was measured in rats at 10 mg/kg;I = inactive. The format is functional, organism-based. Also on record: dose 10 mg/kg.
Data set [10] has as its system Rattus norvegicus. The data set is described as follows: Conditioned avoidance response (CAR) was measured in rats at 40 mg/kg;A = active. Set-up: dose 40 mg/kg. The format is functional, organism-based.
Data set [11] is filed under the species Mus musculus. The data set is described as follows: Relative CNS activity of compound was measured in mice (+++ =for activity in > 6 assays). Format: functional, organism-based. The following applies: Central nervous system.
Data set [12] concerns Rattus norvegicus. The data set is described as follows: Conditioned avoidance response (CAR) was measured in rats at 10 mg/kg; I = inactive. Set-up: dose 10 mg/kg. The format is functional, organism-based.
Data set [13] deals with Rattus norvegicus. The data set is described as follows: Conditioned avoidance response (CAR) was measured in rats at 20 mg/kg; A = active. Format: functional, organism-based. Set-up: dose 20 mg/kg.
For data set [14], the species on record is Rattus norvegicus. The data set is described as follows: Conditioned avoidance response (CAR) was measured in rats; Inactive. Format: functional, organism-based.
Data set [15] is filed under the species Rattus norvegicus. The data set is described as follows: Conditioned avoidance response (CAR) was measured in rats; I = inactive. Format: functional, organism-based.
For data set [16], the species on record is Mus musculus. The data set is described as follows: Relative CNS activity of compound was measured in mice (++ =for activity in 4-5 assays). The format is functional, organism-based. The note with it: Central nervous system.

For `CC1Cc2cccc(-c3ccccc3)c2CN1.Cl` (configuration not stated), in [1], the LD50 (in general, the dose at which mortality reaches 50%) at 0.5 h turned out to be 146 mg/kg. Also, the CAR result with Rattus norvegicus [2] and in the data set with Rattus norvegicus [4] was “inactive” in each case. Also, the Activity entry in the data set filed under Mus musculus [3] is “<=1”.
Consider `COc1cccc(-c2cccc3c2CN(C)CC3)c1.Cl`, for which the CAR result in the data set with Rattus norvegicus [5] is “inactive”. In data set [1], this compound registered an LD50 at 0.5 h of 156 mg/kg. Further, in the data set with Rattus norvegicus [6], the CAR result is “Active”. Also, the Activity result in the data set listed under Mus musculus [7] is “Weak activity”.
Take `CC1Cc2cccc(-c3ccccc3)c2CN1Cc1ccccc1.Cl` (configuration not stated): the LD50 at 0.5 h in [1] was found to be 227 mg/kg. For the same compound, the CAR result in the data set on Rattus norvegicus [8] is “Active”. For the same compound, in the data set with Rattus norvegicus [9], the CAR result was “inactive”. Moreover, in the data set filed under Mus musculus [7], the Activity entry was “Weak activity”.
Regarding `CN1CCc2cccc(-c3ccccc3)c2C1.O=C(O)/C=C/C(=O)O`, the CAR entry in the data set on Rattus norvegicus [10] is “Active”. For the same compound, the LD50 at 0.5 h in data set [1] was less than 320 mg/kg. Also, in the data set filed under Mus musculus [11], the Activity entry was “Weak activity”. The CAR result with Rattus norvegicus [9] is “inactive”.
Turning to `Cl.c1ccc(-c2cccc3c2CNCC3)cc1`, in the data set with Rattus norvegicus [12], the CAR entry is “inactive”. In data set [1], the LD50 at 0.5 h was 82 mg/kg. The CAR entry with Rattus norvegicus [13] was “Active”. Moreover, the Activity entry in the data set filed under Mus musculus [3] was “<=1”.
`COc1cccc(-c2cccc3c2CN(Cc2ccccc2)CC3)c1.Cl` registered an LD50 at 0.5 h in [1] greater than 320 mg/kg. In addition, the Activity entry in the data set filed under Mus musculus [3] is recorded as “<=1”. In addition, in the data set filed under Rattus norvegicus [14], the CAR entry was “inactive”.
Turning to `Br.CC1Cc2cccc(-c3ccccc3)c2CN1C` (configuration not stated), in [1], the LD50 at 0.5 h is less than 320 mg/kg. The CAR entry in the data set filed under Rattus norvegicus [15] is “inactive”. Besides, in the data set filed under Mus musculus [16], the result was Active.
Compound `COc1ccccc1-c1cccc2c1CNCC2.Cl` displayed a median lethal dose (LD50) at 0.5 h in data set [1] of 81 mg/kg. The outcome in the data set filed under Mus musculus [16] was Active.
For the compound `COc1ccccc1-c1cccc2c1CN(C)CC2.Cl`, in the data set on Rattus norvegicus [5], the CAR entry is “inactive”. In data set [1], this compound had an LD50 at 0.5 h of 81 mg/kg. In addition, in the data set filed under Mus musculus [3], the Activity entry was “<=1”. The CAR result with Rattus norvegicus [6] was “Active”.
Regarding `Cl.c1ccc(CN2CCc3cccc(-c4ccccc4)c3C2)cc1`, the LD50 at 0.5 h in data set [1] came out at 158 mg/kg. For the same compound, the CAR result in the data set filed under Rattus norvegicus [15] was “inactive”. Besides, the Activity entry in the data set filed under Mus musculus [3] is reported as “<=1”.
For `COc1ccccc1-c1cccc2c1CN(Cc1ccccc1)CC2.Cl`, the LD50 at 0.5 h in [1] is greater than 160 mg/kg. Also, the Activity result in the data set listed under Mus musculus [3] is “<=1”. For the same compound, the CAR entry in the data set filed under Rattus norvegicus [14] is “inactive”.
Regarding `COc1cccc(-c2cccc3c2CNCC3)c1.Cl`, in the data set with Rattus norvegicus [5], the CAR result was “inactive”. The same compound displayed a median lethal dose (LD50) at 0.5 h in data set [1] of less than 160 mg/kg. Moreover, the result in the data set listed under Mus musculus [16] was Active. Besides, in the data set on Rattus norvegicus [6], the CAR entry is “Active”.
